Assays:
[1] = system: Lewis Lung Carcinoma cell lines (LLC); experiment: MTS cell viability assay, LLC cells; assay type: cell-based, murine; settings: for EC50: cisplatin-equivalent concentration; for IC50: 48 hours post-incubation, read-out: IC50 (LLC cell kill)
Excerpt: The absorbance reflects the number of surviving cells.

[2] = system: cisplatin-resistant cancer cell line (CP20); experiment: Liponanoparticle cell viability MTS assay, CP20; assay type: cell-based
Procedure: (§1) In a 96 well plate, 2×10^3 cells were plated. After 4 h, cells were treated with different concentrations of free drug or lipo-nanoparticles. Cells without any treatment were kept as control. After 48 h, cell viability was assessed using standard MTS assay according to manufacturer's instructions.

[3] = system: 4T1 breast cancer cells; experiment: Liponanoparticle cell viability MTS assay, 4T1; assay type: cell-based; settings: three time points
Procedure: In a 96 well plate, 2×10^3 cells were plated. After 4 h, cells were treated with different concentrations of free drug or lipo-nanoparticles. Cells without any treatment were kept as control. […]

[4] = system: Lewis lung cancer cell line (LLC); experiment: Liponanoparticle cell viability MTS assay, LLC; assay type: cell-based
Procedure: as §1

[5] = system: Lewis lung carcinoma
Procedure: (§2) The LLC Lung Cancer cells and 4T1 Breast Cancer cells ([…]) were implanted subcutaneously in the flanks of 4-week-old C57/BL6 and BALB/c mice (weighing 20 g, Charles River Laboratories, MA) respectively. The drug therapy was started after the tumors attained volume of 50 mm^3. […] PBS (100 μL) administered by tail-vein injection was used as a control for drug treatment. The tumor volumes and body weights were monitored on a daily basis. The animals were sacrificed when the average tumor size of the control exceeded 2000 mm^3 in the control group. The tumors were harvested immediately following sacrifice and stored in 10% formalin for further analysis. All animal procedures were approved by Harvard institutional IUCAC.
(§3) The tissues were fixed in 10% formalin, paraffin embedded, sectioned and stained with H&E at the Harvard Medical School Core Facility. Tumor and Kidney paraffin sections were deparaffinized and stained with standard TMR-red fluorescent terminal deoxynucleotidyl transferase-mediated dUTP nick end labeling (TUNEL) kit following the manufacturer's protocol (In Situ Cell Death Detection Kit, TMR Red, Roche). Images were obtained using a Nikon Eclipse TE2000 fluorescence microscope equipped with red filter.
(§4) Body weights were recorded daily to assess toxicity. In addition, livers and spleens were removed at the end of treatment to record weights and perform extensive pathological examination to assess toxicity of vital organs. Cell apoptosis in vital organs was measured using TUNNEL assay. Statistical analysis of the toxicity data was performed using a two-way ANOVA test with the Prism 5™ software.

[6] = system: 4T1 breast cancer; settings: mouse, in vivo
Procedure: as §2, §3, §4

[7] = system: K-ras LSL/+ /Pten fl/fl ovarian adenocarcinomas; experiment: In vivo murine ovarian cancer tumor model (bioluminescence); set-up: species or system mice
Procedure: Ovarian adenocarcinomas were induced in genetically-engineered K-ras^LSL/+/Pten^fl/fl mice via intrabursal delivery of adenovirus carrying Cre recombinase, as described previously. Tumor cells were engineered to express luciferase once activated by Adeno-Cre, in order to make tumor imaging feasible before and after drug treatment.
Statistical analysis of the toxicity data was analyzed using a one-way ANOVA test with the Prism 5™ software.

| Compound | EC50 ([1]; LLC cells, 48 h) [µM] | IC50 ([1]; LLC cells) [µM] | effect on viability of CP20 cells [2] | effect on viability of 4T1 breast cancer cells [3] | effect on viability of LLC cells [4] | tumor growth inhibition ([5]; dose equivalent to 1.25 mg/kg of cisplatin, three doses i.v.) | apoptosis in kidney (TUNEL) ([5]; mouse, in vivo) | apoptosis in tumor (TUNEL) ([5]; mouse, in vivo) | kidney H&E pathology ([5]; mouse, in vivo) | tumor inhibition, dose dependence ([5]; three doses i.v., 1.25 and 3 mg/kg) | apoptosis in the kidney [6] | effect on LLC cell viability ([1]; 48 h) | concentration for complete cell kill ([1]; LLC cells) | apoptosis in the kidney (TUNEL) ([7]; 3 mg/kg or equivalent Pt concentration) | body weight ([7]; daily recording) |
| --- | --- | --- | --- | --- | --- | --- | --- | --- | --- | --- | --- | --- | --- | --- | --- |
| N.N.O=C([O-])C1(C(=O)[O-])CCC1.[Pt+2] [Carboplatin, cis-Diammine-(1,1-cyclobutanedicarboxylato) platinum(II)] | 14.8 ± 0.38 | 14.8 ± 0.38 | no effect at this concentration range | least effective of all platinates tested | no effect at this concentration range |  |  |  |  |  |  |  |  |  |  |
| N.N.[Cl][Pt][Cl] [Cisplatin, cis-dichlorodiammineplatinum(II)] | 3.87 ± 0.37 | 3.87 ± 0.37 | only at the highest concentration |  |  | only a minor tumor growth inhibition | significant apoptosis | significant induction of apoptosis | significant tubular necrosis | dose-dependent tumor inhibition | significant apoptosis in the kidney | identical cell kill | greater than 20 uM | significant apoptosis in the kidney | significant loss of body weight |
